Measured values: patent US11530514B2, “Method for manufacturing a fibrous web” (Kemira Oyj, priority 2017, dated 2022)
Counter-ions that a name gives are not always drawn.

What was measured:
Assay type in all cases: cell-based
aerobic spores [1] = test: Example 3: aerobic spore count in spiked paper machine process water, biocidal pre-treatment
Procedure: (§1) Objective of this laboratory test was to study effect of biocidal pre-treatment on bacterial killing and spore sensitisation efficacy of a germinant surfactant comprising 35 weight-% of dodecylguanidine hydrochloride (DGH) and dipropyleneglycol as solvent in paper machine process water.
Authentic circulation water (1 litre) was collected from a paper machine producing food packaging board and divided into 4 samples with volume of 50 ml. To obtain equal bacterial spore content in the samples at start of the experiment, each sample was spiked with additional bacterial spores. The target level for spores was c.a. 10 000 CFU/ml. The spore solution for spiking was prepared as follows: authentic spore-forming bacteria that were isolated from a paper making process were pre-grown for 2 days at +37° C. in modified nutrient broth, after which the mature spores were harvested, and washed by using centrifugation and cold water. Out of the 4 samples, • the first sample was left without any chemical addition as a reference sample. • the second sample was treated with sodium hypochlorite, at dosage of 5 mg/I, given as active chlorine; • the third sample was treated with a germinant surfactant comprising dodecylguanidine hydrochloride (DGH), at dosage level of 100 mg/I, given as active compound; and • the fourth sample was treated with sodium hypochlorite, at dosage of 5 mg/I, given as active chlorine) for 1 minute, after which the […] sample was treated with a germinant surfactant comprising dodecylguanidine hydrochloride (DGH), at dosage level of 100 mg/I, given as active compound;
Samples were stored at 45° C., under mixing of 180 rpm, for 30 minutes except samples 2 and 4, which were in addition pre-treated with sodium hypochlorite for 1 minute. After the treatment the amount of total aerobic bacteria (non-pasteurized samples) and aerobic spores were quantified (plate count agar, +32° C., 2 days incubation). Prior to the aerobic spore determination, samples were pasteurized at +82° C. for 10 min.

total aerobic bacteria [2] = test: Example 1: total aerobic bacteria count in paper machine water/broke at variable pulp consistency; conditions: for Bacterial killing efficacy (%): DGH 100 mg/L as active vs no addition; for Total aerobic bacteria (+32° C., 2 d PCA): DGH 100 mg/L as active, 30 min, 45° C.
From the text: (§2) Objective of this laboratory test was to study bacterial killing and spore sensitisation effect of a germinant surfactant composition comprising 35 weight-% of dodecylguanidine hydrochloride (DGH) and dipropyleneglycol as solvent in paper machine process water, at variable pulp consistency.
(§3) Authentic circulation water, with low fibre content, and authentic broke, with high fibre content, were collected from a paper machine, which produced food packaging board. Circulation water and broke samples were mixed together to obtain 6 samples in total, at 3 different pulp consistency levels.
(§4) To obtain equal bacterial spore content in the samples at the start of the experiment, each sample was spiked with additional bacterial spores. Target spore level in the sample was set to ca. 10 000 CFU/ml. The spore solution for spiking was prepared as follows: authentic spore-forming bacteria that were isolated from a paper making process were pre-grown for 2 days at +37° C. in a modified nutrient broth, after which the mature spores were harvested, and washed by using centrifugation and cold water.
(§5) Out of the 6 samples, 3 test samples were treated with germinant surfactant comprising dodecylguanidine hydrochloride (DGH) and 3 samples were left without any chemical addition as reference samples. After addition of germinant surfactant, the test samples as well as the reference samples (no addition) were stored at 45° C., mixing of 180 rpm, for 30 minutes, followed by quantification of total aerobic bacteria (non-pasteurized samples) and aerobic spores (plate count agar, +32° C., 2 days incubation). Prior to the aerobic spore determination, samples were pasteurized at +82° C. for 10 min. Weight of suspended solids per litre of liquid, i.e. pulp consistency, was determined at the end of the test (dry weight of sample per total weight of sample).

total aerobic bacteria [3] = test: Example 2: total aerobes count in stagnant 2 d old broke diluted with circulation water; conditions: DGH 70 mg/l active 5 min, total contact time 35 min, +45° C., untreated 9×10^6 CFU/ml
Procedure: (§6) Authentic broke and circulation water samples were collected from an alkaline paper mill producing food packaging board. 1 litre of broke was stored for 2 days, +45° C., with closed cap, without mixing, in order to induce anaerobism and thus bacterial sporulation. This stagnant sample was divided to four 100 ml samples, out of which two replicate samples were treated with a germinant surfactant comprising 35 weight-% dodecylguanidine hydrochloride (DGH) and dipropyleneglycol as solvent. The dosage was 70 mg/L as active DGH. Two replicates were left without any chemical additions as reference samples.
(§7) After chemical contact time of 5 min, all samples were diluted three times with the circulation water and incubated for 30 minutes, at +45° C., mixing of 160 rpm. Total aerobes (PCA, +37° C.) and aerobic spores (PCA, +37° C.) were measured at start from reference samples and after the total contact time of 35 min from all samples.

total aerobic bacteria [4] = test: Example 3: total aerobic bacteria count in paper machine process water, biocidal pre-treatment; conditions: sodium hypochlorite 5 ppm as active chlorine (1 min pre-treatment) and/or DGH 100 ppm as active, untreated 7 000 000
Procedure: as §1
Authentic circulation water (1 litre) was collected from a paper machine producing food packaging board and divided into 4 samples with volume of 50 ml. To obtain equal bacterial spore content in the samples at start of the experiment, each sample was spiked with additional bacterial spores. The target level for spores was c.a. 10 000 CFU/ml. The spore solution for spiking was prepared as follows: authentic spore-forming bacteria that were isolated from a paper making process were pre-grown for 2 days at +37° C. in modified nutrient broth, after which the mature spores were harvested, and washed by using centrifugation and cold water. […]
Samples were stored at 45° C., under mixing of 180 rpm, for 30 minutes except samples 2 and 4, which were in addition pre-treated with sodium hypochlorite for 1 minute. After the treatment the amount of total aerobic bacteria (non-pasteurized samples) and aerobic spores were quantified (plate count agar, +32° C., 2 days incubation). […]

aerobic spores [5] = test: Example 2: aerobic spore count in stagnant 2 d old broke diluted with circulation water
Procedure: as §6, §7

aerobic spores [6] = test: Example 1: aerobic spore count in spiked paper machine water/broke at variable pulp consistency; conditions: for Spore reduction (%): DGH 100 mg/L as active vs no addition; for Aerobic spores, cfu/ml (+82° C., 10 min, +32° C., 2 d PCA): DGH 100 mg/L as active, 30 min, 45° C.
From the text: as §2, §3, §4, §5

Compound	spore reduction (aerobic spores [1]; DGH 100 mg/l active, with or without sodium hypochlorite 5 mg/l pre-treatment, vs untreated)	Bacterial killing efficacy (%) (total aerobic bacteria [2]; pulp consistency 0.1 w/w-%)	Total aerobic bacteria (+32° C., 2 d PCA) (total aerobic bacteria [2]; pulp consistency 0.1 w/w-%)	Bacterial killing efficacy (%) (total aerobic bacteria [2]; pulp consistency 3 w/w-%)	Total aerobic bacteria (+32° C., 2 d PCA) (total aerobic bacteria [2]; pulp consistency 3 w/w-%)	Bacterial killing efficacy (%) (total aerobic bacteria [2]; pulp consistency 6 w/w-%)	Total aerobic bacteria (+32° C., 2 d PCA) (total aerobic bacteria [2]; pulp consistency 6 w/w-%)	total aerobic bacteria level (total aerobic bacteria [3])	Total aerobic bacteria PCA +32, 30 min @45° C. (total aerobic bacteria [4])	level of aerobic spores (aerobic spores [5]; stagnant 2 d old broke, DGH 70 mg/l active 5 min, diluted, total contact time 35 min, +45° C., untreated 330 CFU/ml)	spore reduction (aerobic spores [5]; stagnant diluted broke, DGH 70 mg/l active)	spore reduction (aerobic spores [6]; process streams with different pulp consistencies (summary of Example 1))	Spore reduction (%) (aerobic spores [6]; pulp consistency 0.1 w/w-%)	Aerobic spores, cfu/ml (+82° C., 10 min, +32° C., 2 d PCA) (aerobic spores [6]; pulp consistency 0.1 w/w-%)	Spore reduction (%) (aerobic spores [6]; pulp consistency 3 w/w-%)	Aerobic spores, cfu/ml (+82° C., 10 min, +32° C., 2 d PCA) (aerobic spores [6]; pulp consistency 3 w/w-%)	Spore reduction (%) (aerobic spores [6]; pulp consistency 6 w/w-%)	Aerobic spores, cfu/ml (+82° C., 10 min, +32° C., 2 d PCA) (aerobic spores [6]; pulp consistency 6 w/w-%)	Aerobic spores PCA +32 30 min @45° C. (aerobic spores [1]; pasteurized +82° C. 10 min, sodium hypochlorite 5 ppm as active chlorine and/or DGH 100 ppm as active, untreated 13 000)	effect on bacterial spores (aerobic spores [1]; sodium hypochlorite 5 mg/l as active chlorine)
CCCCCCCCCCCCNC(=N)N [DGH, dodecylguanidine hydrochloride]	> 70%	100%	300	78%	9 000	55%	77 000	2×10^6 CFU/ml	10 000 CFU/ml	120 CFU/ml	> 60%	> 45%	98%	400 cfu/ml	87%	700 cfu/ml	45%	2 800 cfu/ml		
OCl [sodium hypochlorite]																			17 000 CFU/ml	did not have any effect on bacterial spores
